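Step 1: Grow cells in 96-well plates. Step 2: Expose to compound for 48 hours at 5 concentrations. Step 3: Interpolate endpoints linearly; if unreached, use highest concentration. Abbreviation: GI50, concentration required for 50% inhibition of growth.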 The source made the active and inactive calls. No stated cut-off is given here; in the data, active = GI50 up to about 1.1 µM and inactive = higher.
Columns and labels:
Experiment in all cases: growth of human tumour cells (NCI), 48 h
HT-29 = test system: HT-29
SK-MEL-28 = test system: SK-MEL-28
HOP-62 = test system: HOP-62
COLO 205 = test system: COLO 205
OVCAR-3 = test system: OVCAR-3
SK-OV-3 = test system: SK-OV-3
U-251 = test system: U-251
HOP-18 = test system: HOP-18
LOX IMVI = test system: LOX IMVI
KM12 = test system: KM12
HOP-92 = test system: HOP-92
OVCAR-8 = test system: OVCAR-8
DMS-114 = test system: DMS-114
SK-MEL-5 = test system: SK-MEL-5
SF-295 = test system: SF-295
786-0 = test system: 786-0
RXF 393 = test system: RXF 393
CCRF-CEM = test system: CCRF-CEM
SN12C = test system: SN12C
CAKI-1 = test system: CAKI-1
RPMI-8226 = test system: RPMI-8226
K562 = test system: K562
UACC-62 = test system: UACC-62
UACC-257 = test system: UACC-257
TK-10 = test system: TK-10
HL-60 = test system: HL-60
DMS-273 = test system: DMS-273
OVCAR-5 = test system: OVCAR-5
NCI-H460 = test system: NCI-H460
DLD-1 = test system: DLD-1
SF-268 = test system: SF-268
UO-31 = test system: UO-31
OVCAR-4 = test system: OVCAR-4
LXFL 529 = test system: LXFL 529
HCT-15 = test system: HCT-15
M14 = test system: M14
NCI-H226 = test system: NCI-H226
MOLT-4 = test system: MOLT-4
SNB-75 = test system: SNB-75
NCI-H23 = test system: NCI-H23
Malme-3M = test system: Malme-3M
KM-20L2 = test system: KM-20L2
HCT-116 = test system: HCT-116
SNB-78 = test system: SNB-78
SNB-19 = test system: SNB-19
SW-620 = test system: SW-620
IGROV-1 = test system: IGROV-1
NCI-H522 = test system: NCI-H522
SF-539 = test system: SF-539
SR = test system: SR
ACHN = test system: ACHN
A549 = test system: A549
M19-MEL = test system: M19-MEL
SK-MEL-2 = test system: SK-MEL-2

Measured: GI50

O=C(c1ccc(Cl)cc1)N(C(=S)N1CCN(c2ccccn2)CC1)c1ccccc1
inactive: HT-29 > 100 µM | SK-MEL-28 > 100 µM | HOP-62 > 100 µM | COLO 205 > 100 µM | OVCAR-3 66.4 µM | SK-OV-3 > 100 µM | U-251 > 100 µM | HOP-18 > 100 µM | LOX IMVI > 100 µM | KM12 > 100 µM | HOP-92 > 100 µM | OVCAR-8 > 100 µM | DMS-114 42.5 µM | SK-MEL-5 39.6 µM | SF-295 99.3 µM | 786-0 > 100 µM | RXF 393 15.6 µM | CCRF-CEM > 100 µM | SN12C > 100 µM | CAKI-1 > 100 µM | RPMI-8226 82.4 µM | K562 41.7 µM | UACC-62 > 100 µM | UACC-257 > 100 µM | TK-10 > 100 µM | HL-60 32.7 µM | DMS-273 78.3 µM | OVCAR-5 > 100 µM | NCI-H460 > 100 µM | DLD-1 > 100 µM | SF-268 > 100 µM | UO-31 68.9 µM | OVCAR-4 > 100 µM | LXFL 529 55.2 µM | M14 > 100 µM | NCI-H226 24.9 µM | MOLT-4 43.6 µM | SNB-75 > 100 µM | NCI-H23 > 100 µM | Malme-3M > 100 µM | KM-20L2 > 100 µM | HCT-116 97.5 µM | SNB-78 > 100 µM | SNB-19 > 100 µM | SW-620 > 100 µM | IGROV-1 > 100 µM | NCI-H522 > 100 µM | SF-539 > 100 µM | SR 39.3 µM | ACHN > 100 µM | A549 94.2 µM | M19-MEL > 100 µM | SK-MEL-2 > 100 µM
> 100 µM: HCT-15

Reference: ChEMBL document CHEMBL1201862, “PubChem BioAssay data set” (2004)
